Assay results published in patent publication US8343990B2, “Substituted cyclopropyl compounds, compositions containing such compounds and methods of treatment” (Merck Sharp & Dohme Corp., priority 2008, dated 2013).

Each compound was assayed against T1, GPR119 receptor (UniProt Q8TDV5, S309L, species not given) (assay: GPR119 signaling, cyclic AMP (cAMP) homogenous time resolved fluorescence (HTRF) assay). Details: CHO cells with Gα15 and murine GPR119, or HEK293 Flp-In cells with human GPR119 S309L; table does not say which; read-out: Activity: inflection points, denoted as EC50 values (agonist activation of GPR119, cAMP).
T1 sequence (Q8TDV5 1-335 S309L): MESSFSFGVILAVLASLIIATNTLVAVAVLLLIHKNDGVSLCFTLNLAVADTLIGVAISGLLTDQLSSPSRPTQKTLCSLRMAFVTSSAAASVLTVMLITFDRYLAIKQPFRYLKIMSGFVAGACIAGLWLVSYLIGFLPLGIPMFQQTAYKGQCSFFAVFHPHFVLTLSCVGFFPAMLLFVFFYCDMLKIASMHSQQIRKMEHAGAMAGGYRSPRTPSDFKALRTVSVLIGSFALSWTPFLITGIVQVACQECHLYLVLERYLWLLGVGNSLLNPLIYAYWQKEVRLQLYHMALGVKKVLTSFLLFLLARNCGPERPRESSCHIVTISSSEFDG
Format: cell-based
From the text: Measurement of GPR119 Signaling Using a Cyclic AMP (cAMP) Homogenous Time Resolved Fluorescence (HTRF) Assay
Chinese hamster ovary (CHO) cell lines stably transfected with the permissive guanine nucleotide binding protein alpha 15 (Gα15) and […] GPR119 were maintained in DMEM media containing FBS, penicillin-streptomycin, puromycin, and G418 (geneticin). Alternatively, human embryonic kidney (HEK)293 Flp-In cells (Invitrogen, Carlsbad, Calif.) were stably transfected with a human SNP variant (S309L) of GPR119 and maintained in DMEM media containing FBS, penicillin-streptomycin, and hygromycin. Agonist activation of the GPR119 receptor was measured in receptor transfected cells described above, treated with compounds of this invention, using a commercial homogenous time resolved fluorescence (HTRF) kit for measurement of cAMP (CisBio, Bedford, Mass.). The assay was performed in 96-well half-volume plates (murine) or 384-well plates (human) following the manufacturers instructions. Briefly, suspended cells were incubated with a dose titration of test compound at room temperature for 60 min, lysed, and incubated with HTRF reagents for an additional 60 min. The plate was read using an Envision multilabel reader (Perkin Elmer) adjusted to read time resolved fluorescence and the cAMP concentrations were extrapolated from a cAMP calibration curve. […] The concentration of test compound required to stimulate a half-maximal response (EC50), and efficacy as compared to an internal agonist control, was determined from a sigmoidal 4-parameter curve fit of the resulting plot of normalized activity versus compound concentration.

Row | SMILES | EC50 [nM]
1 | Cc1nnnn1-c1ccc(OCCC2CC2C2CCN(c3ncc(Cl)cn3)CC2)cc1 (racemic) [Ex 31b, rac cis-5-chloro-2-[4-(2-{2-[4-(5-methyl-1H-tetrazol-1-yl)phenoxy]ethyl}cyclopropyl)piperidin-1-yl]pyrimidine] | 10 to 50
2 | N#Cc1ccc(OCC2CC2CC2CCN(c3ncc(Cl)cn3)CC2)c(F)c1 (racemic) [Ex 115, rac-trans-4-[((1S,2S)-2-{[1-(5-chloropyrimidin-2-yl)piperidin-4-yl)methyl}cyclopropyl)methoxy]-3-fluorobenzonitrile] | 10 to 50
3 | CS(=O)(=O)c1ccc(OCC[C@@H]2C[C@H]2C2CCN(c3ncc(Cl)cn3)CC2)cc1 (racemic) [Ex 90, rac-trans-5-chloro-2-[4-(2-{2-[4-(methylsulfonyl)phenoxy]ethyl}cyclopropyl)piperidin-1-yl]pyrimidine] | 10 to 50
4 | O=C(NC1CC1)c1ccc(OC[C@@H]2C[C@H]2CC2CCN(c3ncc(Cl)cn3)CC2)cc1F (racemic) [Ex 106, Rac-trans 4-[(2-{[1-(5-chloropyrimidin-2-yl)piperidin-4-yl]methyl}cyclopropyl)methoxy]-N-cyclopropyl-2-fluorobenzamide] | < 10
5 | Cc1nc(C#N)cc(OCC[C@@H]2C[C@@H]2C2CCN(c3ncc(F)cn3)CC2)n1 (racemic) [Ex 53, Rac-cis-6-(2-{2-[1-(5-fluoropyrimidin-2-yl)piperidin-4-yl]cyclopropyl}ethoxy)-2-methylpyrimidine-4-carbonitrile] | < 10
6 | Cc1nc(C#N)cc(OCC[C@@H]2C[C@@H]2C2CCN(c3ncc(F)c(C)n3)CC2)n1 (racemic) [Ex 46, Rac-cis-6-(2-{2-[1-(5-fluoro-4-methylpyrimidin-2-yl)piperidin-4-yl]cyclopropyl}ethoxy)-2-methylpyrimidine-4-carbonitrile] | < 10
7 | Cc1nnc(-c2ccc(OC[C@H]3C[C@@H]3CC3CCN(c4ncc(Cl)cn4)CC3)cc2F)o1 [Ex 110, 5-chloro-2-{4-[((1S,2S)-2-{[3-fluoro-4-(5-methyl-1,3,4-oxadiazol-2-yl)phenoxy]methyl}cyclopropyl)methyl]piperidin-1-yl}pyrimidine] | 10 to 50
8 | CC(=O)c1ccc(OCC[C@@H]2C[C@@H]2C2CCN(c3ncc(Cl)cn3)CC2)cc1 (racemic) [Ex 35, Rac-cis-1-[4-(2-{2 [1-(5-chloropyrimidin-2-yl)piperidin-4-yl]cyclopropyl}ethoxy)phenyl]ethanone] | 50 to 200
9 | CS(=O)(=O)c1cccc(OCCC2CC2C2CCN(c3ncc(Cl)cn3)CC2)c1 (racemic) [Ex 7, rac cis-5-chloro-2-[4-(2-{2-[3-(methylsulfonyl)phenoxy]ethyl}cyclopropyl)piperidin-1-yl]pyrimidine] | < 10
10 | Cc1nc(C#N)cc(OCC[C@@H]2C[C@@H]2C2CCN(c3ncc(Cl)c(C)n3)CC2)n1 (racemic) [Ex 42, Rac-cis-6-(2-{2-[1-(5-chloro-4-methylpyrimidin-2-yl)piperidin-4-yl]cyclopropyl}ethoxy)-2-methylpyrimidine-4-carbonitrile] | < 10
11 | Cc1cnc(N2CCC(C3CC3CCOc3cc(C#N)nc(C)n3)CC2)nc1 (single isomer, unassigned) [Ex 39, Chiral-cis-2-methyl-6-(2-{2-[1-(5-methylpyrimidin-2-yl)piperidin-4-yl]cyclopropyl}ethoxy)pyrimidine-4-carbonitrile] | < 10
12 | Cc1nnc(-c2ccc(OCCC3CC3C3CCN(c4ncc(Cl)cn4)CC3)cc2F)o1 (single isomer, unassigned) [Ex 83 S, cis-5-chloro-2-[4-(2-{2-[3-fluoro-4-(5-methyl-1,3,4-oxadiazol-2-yl)phenoxy]ethyl}cyclopropyl)piperidin-1-yl]pyrimidine] | < 10
13 | O=C(NC1CC1)c1ccc(OC[C@@H]2C[C@H]2CC2CCN(c3ncc(Cl)cn3)CC2)cc1F [Ex 107, 4-[((1R,2R)-2-{[1-(5-chloropyrimidin-2-yl)piperidin-4-yl]methyl}cyclopropyl)methoxy]-N-cyclopropyl-2-fluorobenzamide] | 10 to 50
14 | CS(=O)(=O)c1ccc(OC[C@H]2C[C@@H]2CC2CCN(c3ncc(Cl)cn3)CC2)cc1 [Ex 103, 5-chloro-2-{4-[((1S,2S)-2-{[4-(methylsulfonyl)phenoxy]methyl}cyclopropyl)methyl]piperidin-1-yl}pyrimidine] | 10 to 50
15 | Cc1nnc(-c2ccc(OCCC3CC3C3CCN(c4ncc(F)cn4)CC3)cc2F)o1 (single isomer, unassigned) [Ex 83eS, cis-5-fluoro-2-[4-(2-{2-[3-fluoro-4-(5-methyl-1,3,4-oxadiazol-2-yl)phenoxy]ethyl}cyclopropyl)piperidin-1-yl]pyrimidine] | < 10
16 | Cc1cnc(N2CCC(C3CC3CCOc3ccc(-n4cnnn4)c(F)c3)CC2)nc1 (racemic) [Ex 30e, rac cis-2-[4-(2-{2-[3-fluoro-4-(1H-tetrazol-1-yl)phenoxy]ethyl)cyclopropyl)piperidin-1-yl]-5-methylpyrimidine] | < 10
17 | Fc1cnc(N2CCC(C3CC3CCOc3ccc(-n4ccnn4)cc3)CC2)nc1 (single isomer, unassigned) [Ex 83bF, cis-5-fluoro-2-[4-(2-{2-[4-(1H-1,2,3-triazol-1-yl)phenoxy]ethyl}cyclopropyl)piperidin-1-yl]pyrimidine] | 50 to 200
18 | Clc1cnc(N2CCC(C3CC3CCOc3ccc(-n4cnnc4)cc3)CC2)nc1 (racemic) [Ex 26, rac cis-5-chloro-2-[4-(2-{2-[4-(4H-1,2,4-triazol-4-yl)phenoxy]ethyl}cyclopropyl)piperidin-1-yl]pyrimidine] | 10 to 50
19 | Cc1nnc(-c2ccc(OCC[C@H]3C[C@H]3C3CCN(c4ncc(Cl)c(C)n4)CC3)cc2F)o1 (racemic) [Ex 87, Rac-cis-5-chloro-2-[4-(2-{2-[3-fluoro-4-(5-methyl-1,3,4-oxadiazol-2-yl)phenoxy]ethyl}cyclopropyl)piperidin-1-yl]-4-methylpyrimidine] | < 10
20 | Cc1nc(C#N)cc(OCC[C@@H]2C[C@@H]2C2CCN(c3ncc(Cl)cn3)CC2)n1 (racemic) [Ex 51, Rac-cis-6-(2-{2-[1-(5-chloropyrimidin-2-yl)piperidin-4-yl]cyclopropyl}ethoxy)-2-methylpyrimidine-4-carbonitrile] | < 10
21 | N#Cc1ccc(OCCC2CC2C2CCN(c3ncc(Cl)cn3)CC2)cc1F (racemic) [Ex 12, rac cis-4-(2-{2-[1-(5-chloropyrimidin-2-yl)piperidin-4-yl)cyclopropyl}ethoxy)-2-fluorobenzonitrile] | 10 to 50
22 | Cc1nc(C#N)cc(OCC[C@@H]2C[C@@H]2C2CCN(c3ncc(C)c(C)n3)CC2)n1 (racemic) [Ex 44, Rac-cis-6-(2-{2-[1-(4,5-dimethylpyrimidin-2-yl)piperidin-4-yl]cyclopropyl}ethoxy)-2-methylpyrimidine-4-carbonitrile] | 10 to 50
23 | Fc1cc(OCCC2CC2C2CCN(c3ncc(Cl)cn3)CC2)ccc1-n1cnnn1 (single isomer, unassigned) [Ex 83dS, cis-5-chloro-2-[4-(2-{2-[3-fluoro-4-(1H-tetrazol-1-yl)phenoxy]ethyl}cyclopropyl)piperidin-1-yl]pyrimidine] | < 10
24 | Clc1cnc(N2CCC(C3CC3CCOc3ccc(-n4cnnn4)cc3)CC2)nc1 (single isomer, unassigned) [Ex 83cF, cis-5-chloro-2-[4-(2-{2-[4-(1H-tetrazol-1-yl)phenoxy]ethyl}cyclopropyl)piperidin-1-yl]pyrimidine] | < 10
25 | Clc1cnc(N2CCC(C3CC3CCOc3ccc(-n4cnnn4)cc3)CC2)nc1 (single isomer, unassigned) [Ex 83cS, cis-5-chloro-2-[4-(2-{2-[4-(1H-tetrazol-1-yl)phenoxy]ethyl}cyclopropyl)piperidin-1-yl]pyrimidine] | < 10
26 | Cc1cc(OC[C@@H]2C[C@H]2CC2CCN(c3ncc(Cl)cn3)CC2)nc(C#N)n1 (racemic) [Ex 114, rac-trans-4-[(2-{[1-(5-chloropyrimidin-2-yl)piperidin-4-yl]methyl}cyclopropyl)methoxy]-6-methylpyrimidine-2-carbonitrile] | 50 to 200
27 | Cc1nc(C#N)cc(OCC[C@@H]2C[C@@H]2C2CCN(c3ccc(Cl)cn3)CC2)n1 (racemic) [Ex 43, Rac-cis-6-(2-{2-[1-(5-chloropyridin-2-yl)piperidin-4-yl]cyclopropyl}ethoxy)-2-methylpyrimidine-4-carbonitrile] | < 10
28 | N#Cc1ccc(OCC[C@H]2C[C@@H]2C2CCN(c3ncc(Cl)cn3)CC2)cc1F [Ex 94, 4-(2-{(1R,2R)-2-[1-(5-chloropyrimidin-2-yl)piperidin-4-yl]cyclopropyl}ethoxy)-2-fluorobenzonitrile] | 50 to 200
